Experimental findings from ChEMBL document CHEMBL5390278, “PPARα/γ-Targeting Amorfrutin Phytocannabinoids from Aerial Parts of Glycyrrhiza foetida” (J Nat Prod, 2023) are described below.

The source made the active and inactive calls. No cut-off for these calls is given here. Some results are limits rather than exact numbers.

In series [1] the target is T1, Peroxisome proliferator-activated receptor alpha (Homo sapiens) (UniProt Q07869).
T1 sequence (whole entry): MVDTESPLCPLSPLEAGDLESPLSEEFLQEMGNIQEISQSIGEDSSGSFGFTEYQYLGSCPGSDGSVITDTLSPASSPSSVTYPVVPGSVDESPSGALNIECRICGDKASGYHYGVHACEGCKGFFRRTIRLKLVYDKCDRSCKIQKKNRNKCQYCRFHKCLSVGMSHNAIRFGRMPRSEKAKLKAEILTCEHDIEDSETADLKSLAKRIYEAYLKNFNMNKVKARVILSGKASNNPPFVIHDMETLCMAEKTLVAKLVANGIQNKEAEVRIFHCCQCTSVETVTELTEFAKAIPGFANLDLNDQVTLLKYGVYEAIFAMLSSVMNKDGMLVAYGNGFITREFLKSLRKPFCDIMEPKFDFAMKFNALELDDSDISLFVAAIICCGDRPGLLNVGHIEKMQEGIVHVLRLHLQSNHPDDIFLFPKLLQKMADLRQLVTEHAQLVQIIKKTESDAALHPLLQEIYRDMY
Nature of the series: Agonist activity at human PPAR alpha transfected in African green monkey COS-7 cells co-transfected with CMX-Gal4 fused hPPARalpha/TK-MH100x4-Luc/renilla luciferase assessed as fold increase in luciferase activity at 10 uM incubated for 24 hrs by Dual-Glo luciferase assay. As to conditions: filed as agonist. The series is classed as cell-based.

Series [2] concerns the target T2, Peroxisome proliferator-activated receptor gamma (Homo sapiens) (UniProt P37231).
T2 sequence (whole entry): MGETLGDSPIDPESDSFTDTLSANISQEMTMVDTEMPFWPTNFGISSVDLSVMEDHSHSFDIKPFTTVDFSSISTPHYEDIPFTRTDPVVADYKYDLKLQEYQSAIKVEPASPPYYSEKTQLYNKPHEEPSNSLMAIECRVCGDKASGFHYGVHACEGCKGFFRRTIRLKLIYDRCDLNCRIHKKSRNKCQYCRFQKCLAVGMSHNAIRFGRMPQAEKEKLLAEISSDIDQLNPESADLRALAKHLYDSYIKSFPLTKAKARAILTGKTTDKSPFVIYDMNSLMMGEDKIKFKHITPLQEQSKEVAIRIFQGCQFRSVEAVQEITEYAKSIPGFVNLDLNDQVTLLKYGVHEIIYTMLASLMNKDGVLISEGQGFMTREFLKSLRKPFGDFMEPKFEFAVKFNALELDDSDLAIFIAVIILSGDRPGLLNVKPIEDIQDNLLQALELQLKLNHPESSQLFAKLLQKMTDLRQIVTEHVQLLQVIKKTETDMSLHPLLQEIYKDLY
Briefly: Agonist activity at human PPAR gamma transfected in African green monkey COS-7 cells co-transfected with CMX-Gal4 fused hPPARgamma/TK-MH100x4-Luc/renilla luciferase at 10 uM incubated for 24 hrs by Dual-Glo luciferase assay. It is filed as cell-based. As to conditions: filed as agonist.

In the next series the test system is COS-7. Briefly: Cytotoxicity against African green monkey COS-7 cells assessed as cell viability at 1 to 30 uM incubated for 24 hrs by MTT assay. Conditions: chlorocebus aethiops, cos-7, 24 h, dose 1-30 µM. The series is classed as toxicity, cell-based. A general note: Formazan colour is commonly taken as a measure of viable cells.
Series [3] addresses T2, Peroxisome proliferator-activated receptor gamma (Homo sapiens). Briefly: Agonist activity at human PPAR gamma transfected in African green monkey COS-7 cells co-transfected with CMX-Gal4 fused hPPARgamma/TK-MH100x4-Luc/renilla luciferase assessed as fold increase in luciferase activity at 10 uM incubated for 24 hrs by Dual-Glo luciferase assay. The series is classed as cell-based.

`C=C(C)C(O)Cc1c(OC)cc(CCc2ccccc2)c(C(=O)O)c1O` (racemic): the fold change (FC) in series [1] stood at 5. Further, the result in series [2] was Active.
On to `COc1cc(CCc2ccccc2)c(C(=O)O)c2occc12`, for which, in series [1], the fold change (FC) stood at 5.
Consider `COc1c(CC=C(C)C)c(O)c(C(=O)O)c(CCc2ccccc2)c1CC=C(C)C`, for which the result in series [2] was Active.
Regarding `COc1cc(CCc2ccccc2)c(C(=O)O)c2c1[C@H](OC)[C@@H](C(C)(C)O)O2`, in the series on COS-7, the Activity result is listed as “Toxic”.
In the case of `CCCCCc1cc(O)c(CC=C(C)C)c(O)c1CC=C(C)C`, the fold change (FC) in series [1] was found to be 5.
Regarding `COc1cc(/C=C/c2ccccc2)cc(OC)c1CC=C(C)C`, the Activity result with COS-7 was “Toxic”.
Consider `COc1cc(CCc2ccccc2)c(C(=O)O)c(O)c1CC=C(C)C`, for which the fold change (FC) was 5 in series [1] and above 20 in series [3]. In addition, the outcome in series [2] was Active.
With `C=C(C)C(Cc1c(OC)cc(CCc2ccccc2)c(C(=O)O)c1O)OO` (racemic), in series [1], the fold change (FC) was 5. Further, the outcome in series [2] was Active.
In the case of `COc1cc(/C=C/c2ccccc2)cc(O)c1CC=C(C)C`, in the series with COS-7, the Activity result is “Toxic”.
With `COc1cc(CCc2ccccc2)cc(O)c1CC=C(C)C`, in the series with COS-7, the Activity entry is listed as “Toxic”.
In the case of `CC(C)=CCc1c(O)cc(CCc2ccccc2)c(CC=C(C)C)c1O`, the Activity result with COS-7 is on record as “Toxic”.
In the case of `CCCCCc1cc(OC)c2c(c1C(=O)O)OC(C(C)(C)O)C2` (racemic), the fold change (FC) in series [1] came out at 5.
Regarding `C=C(C)C(O)Cc1c(OC)cc(CCCCC)c(C(=O)O)c1O` (racemic), the fold change (FC) in series [1] was 5. Moreover, the result in series [2] was Active.
Consider `COc1cc(C#Cc2ccccc2)cc(OC)c1CC=C(C)C`, for which the Activity entry in the series with COS-7 is listed as “Toxic”.
`COc1cc(CCc2ccccc2)cc(OC)c1CC=C(C)C`: the Activity result with COS-7 is “Toxic”.
Still for that read-out and setting: in the case of `CC(C)=CCc1c(O)cc(CCc2ccccc2)cc1O` it was “Toxic”; in that of `CCCCCc1cc(OC)c(CC=C(C)C)c(O)c1C(=O)O`, “Toxic”.
